Data from ChEMBL document CHEMBL1240337, “Identification of proteases that regulate erythrocyte rupture by the malaria parasite Plasmodium falciparum” (Nat Chem Biol, 2008).
The source made the active and inactive calls. The rule behind the calls is not given here.

What was measured:
Plasmodium falciparum [1] = experiment: Antiplasmodial activity against Plasmodium falciparum schizont infected in human erythrocytes assessed as effect on parasite ring-to-schizont morphology at 1 to 50 uM after 24 by propidium iodide staining-based FACS analysis; type: functional, organism-based
[2] = target: T1, Protease, putative (Plasmodium falciparum 3D7) (UniProt Q8I1Y2); experiment: Inhibition of Plasmodium falciparum 3D7 PFD0230c by fluorescence spectrophotometry
T1 sequence (whole entry): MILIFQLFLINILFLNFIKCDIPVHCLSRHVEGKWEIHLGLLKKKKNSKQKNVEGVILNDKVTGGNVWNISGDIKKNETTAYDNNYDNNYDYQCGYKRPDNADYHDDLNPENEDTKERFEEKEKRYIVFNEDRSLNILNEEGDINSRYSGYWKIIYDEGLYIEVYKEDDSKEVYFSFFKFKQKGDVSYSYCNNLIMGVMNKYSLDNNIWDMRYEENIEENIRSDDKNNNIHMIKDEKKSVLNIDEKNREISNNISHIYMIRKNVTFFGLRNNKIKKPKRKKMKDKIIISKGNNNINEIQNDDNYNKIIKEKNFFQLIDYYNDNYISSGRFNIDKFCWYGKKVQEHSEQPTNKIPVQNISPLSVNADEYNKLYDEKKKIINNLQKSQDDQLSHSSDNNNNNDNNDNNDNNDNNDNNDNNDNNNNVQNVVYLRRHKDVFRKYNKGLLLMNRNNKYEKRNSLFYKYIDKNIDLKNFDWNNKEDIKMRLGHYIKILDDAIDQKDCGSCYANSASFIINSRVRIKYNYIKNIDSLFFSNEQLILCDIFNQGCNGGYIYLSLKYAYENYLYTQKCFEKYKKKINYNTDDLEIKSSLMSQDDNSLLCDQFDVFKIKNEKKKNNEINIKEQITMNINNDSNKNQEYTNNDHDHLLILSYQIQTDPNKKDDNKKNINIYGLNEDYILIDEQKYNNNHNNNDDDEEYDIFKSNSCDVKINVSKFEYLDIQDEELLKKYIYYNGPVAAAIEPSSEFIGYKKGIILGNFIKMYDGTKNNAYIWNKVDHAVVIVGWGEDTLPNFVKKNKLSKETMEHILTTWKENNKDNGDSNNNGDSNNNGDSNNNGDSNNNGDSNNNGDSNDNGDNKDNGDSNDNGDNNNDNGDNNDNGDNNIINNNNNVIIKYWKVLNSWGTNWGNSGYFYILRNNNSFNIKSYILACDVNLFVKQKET

[3] = target: T2, Falcipain-3 (Plasmodium falciparum 3D7) (UniProt Q8IIL0); experiment: Inhibition of Plasmodium falciparum 3D7 falcipain-3 by fluorescence spectrophotometry
T2 sequence (whole entry): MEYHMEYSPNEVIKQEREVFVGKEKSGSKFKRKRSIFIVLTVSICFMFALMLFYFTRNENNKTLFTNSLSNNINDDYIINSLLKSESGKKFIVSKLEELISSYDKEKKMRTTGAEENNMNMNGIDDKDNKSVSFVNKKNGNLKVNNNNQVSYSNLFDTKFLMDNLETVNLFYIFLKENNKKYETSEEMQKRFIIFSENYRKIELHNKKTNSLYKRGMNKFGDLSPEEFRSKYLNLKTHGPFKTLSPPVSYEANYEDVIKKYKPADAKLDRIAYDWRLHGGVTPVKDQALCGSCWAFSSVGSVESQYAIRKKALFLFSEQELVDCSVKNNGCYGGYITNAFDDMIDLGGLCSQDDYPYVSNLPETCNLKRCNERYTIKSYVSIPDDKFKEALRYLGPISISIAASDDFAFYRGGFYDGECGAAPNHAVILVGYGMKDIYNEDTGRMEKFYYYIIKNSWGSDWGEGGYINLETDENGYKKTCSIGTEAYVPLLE

Plasmodium falciparum [4] = experiment: Inhibition of Plasmodium falciparum 3D7 falcipain-2 by fluorescence spectrophotometry
Plasmodium falciparum [5] = experiment: Antiplasmodial activity against Plasmodium falciparum schizont infected in human erythrocytes assessed as effect on schizont morphology at 1 to 50 uM after 24 by propidium iodide staining-based FACS analysis; type: functional, organism-based

inhibition [2] | inhibition [3] | SMILES | Activity (Plasmodium falciparum [1]) | inhibition (Plasmodium falciparum [4]) | Activity (Plasmodium falciparum [5])
Active | Active | CCC[C@H](N)C(=O)N[C@H](/C=C/S(=O)(=O)c1ccccc1)CCc1ccccc1 | inactive | Active | inactive
Active | Active | C[C@H](N)C(=O)N[C@H](/C=C/S(=O)(=O)c1ccccc1)CCc1ccccc1 | inactive | Active | inactive
